From publication PMC10344917, “Affinity and cooperativity modulate ternary complex formation to drive targeted protein degradation” (Nature Communications, 2023)

Molecular target: T1, SMARCA2 (Homo sapiens, UniProt P51531)
T1 construct: endogenous in cells; host or cells: A375
Test: SMARCA2 degradation, MSD assay, dose response
Type: cell-based
Parameters: key to AUC (area under the dose-response curve): sum of trapezoids of POC vs dose points, h = 1
Conditions: for Dmax: A-375, SMARCA2 degraded; for Dmax / DC50: MSD assay, 2 h timepoint; for Dmax / AUC (area under the dose-response curve) / DC50: A375 cells; for AUC (area under the dose-response curve): SMARCA2 MSD assay, 2 h; for DC50: SMARCA2 degradation
Protocol: A375 cells were treated with SMARCA2 or BRD4 degraders for 2 h (4 h for BRD4) and generated lysates. SMARCA2 or BRD4 protein was measured with a variation of a sandwich ELISA that was assembled from commercially available antibodies as well as reagents and instrumentation procured from Meso Scale Discovery (MSD). Degradation parameter, DC50, is not suitable for PROTACs that induce partial/incomplete DR curves at a fixed time point; maximum drop in target protein level (Dmax) >>0. Conversely, the area under the curve (AUC) can be calculated as a degradation activity parameter for any DR curve, and it encompasses both the degradation potency (i.e., DC50) and efficacy (i.e., Dmax) of PROTACs.
A 1:3 compound dose-response titration was diluted in growth media (1:20), added to appropriate wells of a cell culture plate (1:10) and then assay plates were incubated at 37 °C, 5% CO2.
Plates were washed with 300 µL per well MSD wash buffer (MSD R61TX-1) between each step. Following the last incubation, plates were washed with MSD wash buffer then 150 µL of MSD read buffer (MSD R92TC-2) was added to each well. Plates were immediately read on a MSD plate reader (MSD Sector Imager 6000).
MSD electrochemiluminescence signals were subtracted by the average background signal from wells with lysis buffer alone. Normalized MSD values (POC) for individual compound treated wells were acquired by dividing background-subtracted assay signal by signal from vehicle control wells (cells + 0.1% DMSO) and multiplying by 100. This POC data was graphed using a nonlinear regression curve fit xy analysis and a log(inhibitor) vs response —variable slope (four parameter) model for dose response curves (Graphpad Prism 9, San Diego, CA, USA). To calculate area under the curve, all points on the curve were connected and vertical lines were drawn from each point down to y = 0, generating a series of trapezoids. The area of each trapezoid was determined using the equation A = (1/2)(h)(b1 + b2), where h = 1 (distance between points), b1 = POC of the first point and b2 = POC of the second point. The sum of all trapezoids provides an approximate area under the curve (AUC). For half-life (t1/2) determination in time course studies, a one-phase decay model was used for curve fitting and the time at which the curve crossed 50 POC was determined through interpolation (Graphpad Prism 9, San Diego, CA, USA).

T1 sequence (P51531 whole entry): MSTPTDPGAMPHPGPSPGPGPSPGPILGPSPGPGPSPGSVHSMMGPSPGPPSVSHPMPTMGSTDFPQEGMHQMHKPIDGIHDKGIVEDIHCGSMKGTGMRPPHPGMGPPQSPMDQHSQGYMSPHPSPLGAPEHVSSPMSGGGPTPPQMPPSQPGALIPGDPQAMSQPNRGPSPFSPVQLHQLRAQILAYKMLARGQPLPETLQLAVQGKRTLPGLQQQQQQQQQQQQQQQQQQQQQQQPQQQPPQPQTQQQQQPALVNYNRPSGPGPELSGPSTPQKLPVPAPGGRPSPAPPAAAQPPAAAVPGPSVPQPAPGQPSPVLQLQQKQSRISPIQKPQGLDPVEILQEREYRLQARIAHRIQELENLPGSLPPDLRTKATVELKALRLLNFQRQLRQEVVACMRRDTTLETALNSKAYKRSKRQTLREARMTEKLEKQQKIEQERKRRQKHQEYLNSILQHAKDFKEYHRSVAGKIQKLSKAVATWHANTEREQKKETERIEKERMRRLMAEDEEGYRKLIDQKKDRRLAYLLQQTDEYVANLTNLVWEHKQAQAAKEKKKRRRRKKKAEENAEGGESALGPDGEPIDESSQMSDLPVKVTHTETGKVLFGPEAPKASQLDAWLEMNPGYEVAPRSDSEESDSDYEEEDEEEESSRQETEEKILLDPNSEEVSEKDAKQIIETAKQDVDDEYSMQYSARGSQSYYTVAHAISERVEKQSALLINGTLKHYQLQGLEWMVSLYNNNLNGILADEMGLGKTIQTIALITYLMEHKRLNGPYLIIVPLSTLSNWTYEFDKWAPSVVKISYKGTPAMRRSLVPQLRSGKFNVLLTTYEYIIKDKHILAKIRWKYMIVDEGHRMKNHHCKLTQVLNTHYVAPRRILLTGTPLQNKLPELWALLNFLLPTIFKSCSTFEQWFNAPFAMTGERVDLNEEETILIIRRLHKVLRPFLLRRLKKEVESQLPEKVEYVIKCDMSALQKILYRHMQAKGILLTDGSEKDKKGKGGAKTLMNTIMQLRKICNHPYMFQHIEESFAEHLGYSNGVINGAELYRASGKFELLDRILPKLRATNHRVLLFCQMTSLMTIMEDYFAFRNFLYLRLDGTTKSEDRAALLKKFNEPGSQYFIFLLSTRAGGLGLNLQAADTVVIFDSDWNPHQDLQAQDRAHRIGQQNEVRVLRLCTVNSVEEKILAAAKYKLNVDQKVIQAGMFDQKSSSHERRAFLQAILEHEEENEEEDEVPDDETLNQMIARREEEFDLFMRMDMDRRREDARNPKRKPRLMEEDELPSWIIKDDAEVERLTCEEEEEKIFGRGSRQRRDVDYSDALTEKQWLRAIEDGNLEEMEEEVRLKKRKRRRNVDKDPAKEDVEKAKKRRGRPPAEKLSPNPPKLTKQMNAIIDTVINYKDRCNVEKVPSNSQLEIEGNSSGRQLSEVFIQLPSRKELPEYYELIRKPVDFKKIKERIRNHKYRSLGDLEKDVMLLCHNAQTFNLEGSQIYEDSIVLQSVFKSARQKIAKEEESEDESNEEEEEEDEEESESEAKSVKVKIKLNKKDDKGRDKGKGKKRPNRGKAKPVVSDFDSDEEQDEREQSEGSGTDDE

Row | Dmax | AUC (area under the dose-response curve) | DC50 | SMARCA2 degradation (2 h MSD assay) | Structure (SMILES)
1 | 53% | 119 | 221 nM | – | Cc1ncsc1-c1ccc(CNC(=O)C2C[C@@H](O)CN2C(=O)C(NC(=O)C2(F)CC2)C(C)(C)C)c(OCCc2ccc(CN3CCN(c4cc(-c5ccccc5O)nnc4N)CC3)cc2)c1 (stereo in doubt) [Compound 11, (2R,4R)-N-(2-(4-((4-(3-amino-6-(2-hydroxyphenyl)pyridazin-4-yl)piperazin-1-yl)methyl)phenethoxy)-4-(4-methylthiazol-5-yl)benzyl)-1-((R)-2-(1-fluorocyclopropane-1-carboxamido)-3,3-dimethylbutanoyl)-4-hydroxypyrrolidine-2-carboxamide, reference compound]
2 | 98% | 13 | 28 nM | – | Cc1ncsc1-c1ccc([C@H](C)NC(=O)[C@@H]2C[C@@H](O)CN2C(=O)[C@@H](NC(=O)c2ccnc(N3CCN(c4cc(-c5ccccc5O)nnc4N)CC3)c2)C(C)(C)C)cc1 [Compound 1, 2-(4-(3-Amino-6-(2-hydroxyphenyl)pyridazin-4-yl)piperazin-1-yl)-N-((S)-1-((2S,4R)-4-hydroxy-2-(((S)-1-(4-(4-methylthiazol-5-yl)phenyl)ethyl)carbamoyl)pyrrolidin-1-yl)-3,3-dimethyl-1-oxobutan-2-yl)isonicotinamide]
3 | 95% | 28 | 95 nM | – | Cc1ncsc1-c1ccc([C@H](C)NC(=O)[C@@H]2C[C@@H](O)CN2C(=O)[C@@H](NC(=O)c2cccc(N3CCN(c4cc(-c5ccccc5O)nnc4N)CC3)n2)C(C)(C)C)cc1 [Compound 2, 6-(4-(3-Amino-6-(2-hydroxyphenyl)pyridazin-4-yl)piperazin-1-yl)-N-((S)-1-((2S,4R)-4-hydroxy-2-(((S)-1-(4-(4-methylthiazol-5-yl)phenyl)ethyl)carbamoyl)pyrrolidin-1-yl)-3,3-dimethyl-1-oxobutan-2-yl)picolinamide]
4 | 96% | 26 | 99 nM | – | Cc1ncsc1-c1ccc([C@H](C)NC(=O)[C@@H]2C[C@@H](O)CN2C(=O)[C@@H](NC(=O)c2cccc(N3CCN(c4cc(-c5ccccc5O)nnc4N)CC3)c2)C(C)(C)C)cc1 [Compound 4, (2S,4R)-1-((S)-2-(3-(4-(3-Amino-6-(2-hydroxyphenyl)pyridazin-4-yl)piperazin-1-yl)benzamido)-3,3-dimethylbutanoyl)-4-hydroxy-N-((S)-1-(4-(4-methylthiazol-5-yl)phenyl)ethyl)pyrrolidine-2-carboxamide]
5 | 96% | 28 | 112 nM | – | Cc1ncsc1-c1ccc([C@H](C)NC(=O)[C@@H]2C[C@@H](O)CN2C(=O)[C@@H](NC(=O)c2csc(N3CCN(c4cc(-c5ccccc5O)nnc4N)CC3)n2)C(C)(C)C)cc1 [Compound 5, 2-(4-(3-Amino-6-(2-hydroxyphenyl)pyridazin-4-yl)piperazin-1-yl)-N-((S)-1-((2S,4R)-4-hydroxy-2-(((S)-1-(4-(4-methylthiazol-5-yl)phenyl)ethyl)carbamoyl)pyrrolidin-1-yl)-3,3-dimethyl-1-oxobutan-2-yl)thiazole-4-carboxamide]
6 | 96% | 26 | 85 nM | – | Cc1ncsc1-c1ccc([C@H](C)NC(=O)[C@@H]2C[C@@H](O)CN2C(=O)[C@@H](NC(=O)CN2CCN(c3cc(-c4ccccc4O)nnc3N)CC2)C(C)(C)C)cc1 [Compound 6, (2S,4R)-1-((S)-2-(2-(4-(3-Amino-6-(2-hydroxyphenyl)pyridazin-4-yl)piperazin-1-yl)acetamido)-3,3-dimethylbutanoyl)-4-hydroxy-N-((S)-1-(4-(4-methylthiazol-5-yl)phenyl)ethyl)pyrrolidine-2-carboxamide, reference compound]
7 | 55% | 122 | 850 nM | – | Cc1ncsc1-c1ccc([C@H](C)NC(=O)[C@@H]2C[C@@H](O)CN2C(=O)[C@@H](NC(=O)Cc2ccnc(N3CCN(c4cc(-c5ccccc5O)nnc4N)CC3)c2)C(C)(C)C)cc1 [Compound 7, (2S,4R)-1-((S)-2-(2-(2-(4-(3-Amino-6-(2-hydroxyphenyl)pyridazin-4-yl)piperazin-1-yl)pyridin-4-yl)acetamido)-3,3-dimethylbutanoyl)-4-hydroxy-N-((S)-1-(4-(4-methylthiazol-5-yl)phenyl)ethyl)pyrrolidine-2-carboxamide]
8 | 80% | 75 | 379 nM | – | Cc1ncsc1-c1ccc([C@H](C)NC(=O)[C@@H]2C[C@@H](O)CN2C(=O)[C@@H](NC(=O)CCc2ccnc(N3CCN(c4cc(-c5ccccc5O)nnc4N)CC3)c2)C(C)(C)C)cc1 [Compound 8, (2S,4R)-1-((S)-2-(3-(2-(4-(3-Amino-6-(2-hydroxyphenyl)pyridazin-4-yl)piperazin-1-yl)pyridin-4-yl)propanamido)-3,3-dimethylbutanoyl)-4-hydroxy-N-((S)-1-(4-(4-methylthiazol-5-yl)phenyl)ethyl)pyrrolidine-2-carboxamide]
9 | 65% | 100 | 469 nM | ~ 30% | Cc1ncsc1-c1ccc([C@H](C)NC(=O)[C@@H]2C[C@@H](O)CN2C(=O)[C@@H](NC(=O)c2ccnc(N3CCN(c4cnnc(-c5ccccc5O)c4)CC3)c2)C(C)(C)C)cc1 [Compound 10, N-((S)-1-((2S,4R)-4-Hydroxy-2-(((S)-1-(4-(4-methylthiazol-5-yl)phenyl)ethyl)carbamoyl)pyrrolidin-1-yl)-3,3-dimethyl-1-oxobutan-2-yl)-2-(4-(6-(2-hydroxyphenyl)pyridazin-4-yl)piperazin-1-yl)isonicotinamide]
